Patent publication US10829458B2 (Araxes Pharma LLC, priority 2015, dated 2020)

Target: T1, KRAS G12C 1-169, his-tagged protein, GDP-loaded (Homo sapiens, UniProt P01116, G12C)
T1 construct: KRAS G12C 1-169, his-tagged protein, GDP-loaded
Test: Biochemical assay: covalent modification of KRAS G12C measured by mass spectrometry (RapidFire/TOF or Q-Exactive)
Conditions: covalent binding to KRAS G12C
Summary of the method: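 GDP-loaded his-tagged KRAS G12C 1-169 at 2 μM in 20 mM Hepes, 150 mM NaCl, 1 mM MgCl2 incubated at room temperature with compound (10, 30 or 100 μM final, 2% DMSO) for 30 min, 2 h or 24 h, then quenched with formic acid. Intact-protein LC-MS (RapidFire/TOF or Q-Exactive) with deconvolution quantified modified versus unmodified protein.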

SMILES | Binding % (compounds of structure (I)) | Binding % (compounds of structure (III))
C=CC(=O)N1CCN(c2nc(CCN3CC(F)(F)C3)nc3c(F)c(-c4c(O)cccc4F)c(Cl)cc23)CC1 [Example I-200, 1-(4-(6-chloro-2-(2-(3,3-difluoro-azetidin-1-yl)ethyl)-8-fluoro-7-(2-fluoro-6-hydroxyphenyl)quinazolin-4-yl)piperazin-1-yl) prop-2-en-1-one] | ++ (++ indicates binding activity from 50 to 90%) | 
C=CC(=O)N1CCN(c2nc(OCCCN3CCC(F)(F)C3)nc3c(F)c(-c4c(O)cccc4F)c(Cl)cc23)CC1 [Example I-62, 1-(4-(6-chloro-2-(3-(3,3-difluoro-pyrrolidin-1-yl)propoxy)-8-fluoro-7-(2-fluoro-6-hydroxyphenyl)quinazolin-4-yl)piperazin-1-yl) prop-2-en-1-one] | +++ (+++ indicates binding activity greater than 90%) | 
C=CC(=O)N1CCN(c2nc(OCCN3CCOCC3)nc3c(F)c(-c4cc(O)cc5cccnc45)c(Cl)cc23)CC1 [Example I-108, 1-(4-(6-chloro-8-fluoro-7-(6-hydroxy-quinolin-8-yl)-2-(2-morpholino-ethoxy)quinazolin-4-yl)piperazin-1-yl) prop-2-en-1-one] | +++ (+++ indicates binding activity greater than 90%) | 
C=CC(=O)N1CCN(c2nc(N3CC(N4CCC4)C3)nc3c(F)c(-c4c(O)cccc4F)c(Cl)cc23)CC1 [Example I-162, 1-(4-(2-([1,3′-biazetidin]-1′-yl)-6-chloro-8-fluoro-7-(2-fluoro-6-hydroxyphenyl)quinazolin-4-yl)piperazin-1-yl) prop-2-en-1-one] | + (+ indicates binding activity up to 50%) | 
C=CC(=O)N1CCN(c2nc(OCC3OCCO3)nc3c(F)c(-c4c(C)ccc5[nH]ncc45)c(Cl)cc23)CC1 [Example I-164, 1-(4-(2-((1,3-dioxolan-2-yl)methoxy)-6-chloro-8-fluoro-7-(5-methyl-1H-indazol-4-yl)quinazolin-4-yl)piperazin-1-yl) prop-2-en-1-one] | ++ (++ indicates binding activity from 50 to 90%) | 
C=CC(=O)N1CCN(c2nc(OC3CCN(CC(F)(F)F)CC3)nc3c(F)c(-c4c(O)cccc4F)c(Cl)cc23)CC1 [Example I-27, 1-(4-(6-chloro-8-fluoro-7-(2-fluoro-6-hydroxyphenyl)-2-(1-(2,2,2-trifluoroethyl)piperidin-4-yloxy)quinazolin-4-yl)piperazin-1-yl)prop-2-en-1-one] | +++ (+++ indicates binding activity greater than 90%) | 
C=CC(=O)N1CCN(c2nc(N3CC4(CCOC4)C3)nc3c(F)c(-c4c(O)cccc4F)c(Cl)cc23)CC1 [Example I-155, 1-(4-(6-chloro-8-fluoro-7-(2-fluoro-6-hydroxyphenyl)-2-(6-oxa-2-azaspiro[3,4]octan-2-yl)quinazolin-4-yl)piperazin-1-yl) prop-2-en-1-one] | +++ (+++ indicates binding activity greater than 90%) | 
C=CC(=O)N1CCN(c2nc(OC3CCN(C)CC3)nc3c(F)c(-c4cc(O)cc5ccccc45)c(Cl)cc23)CC1 [Example I-93, 1-(4-(6-chloro-8-fluoro-7-(3-hydroxy-naphthalen-1-yl)-2-(1-methyl-piperidin-4-yloxy)quinazolin-4-yl)piperazin-1-yl)prop-2-en-1-one] | +++ (+++ indicates binding activity greater than 90%) | 
C=CC(=O)N1CCN(c2nc(OCC(=O)N(C)C)nc3c(F)c(-c4c(C)ccc5[nH]ncc45)c(Cl)cc23)CC1 [Example I-4, 2-(4-(4-acryloylpiperazin-1-yl)-6-chloro-8-fluoro-7-(5-methyl-1H-indazol-4-yl)quinazolin-2-yloxy)-N,N-dimethyl-acetamide] | ++ (++ indicates binding activity from 50 to 90%) | 
C=CC(=O)N1CCN(c2nc(N3CC(N4CCN(C5CC5)CC4)C3)nc3c(F)c(-c4c(C)ccc5[nH]ncc45)c(Cl)cc23)CC1 [Example I-176, 1-(4-(6-chloro-2-(3-(4-cyclopropyl-piperazin-1-yl)azetidin-1-yl)-8-fluoro-7-(5-methyl-1H-indazol-4-yl)quinazolin-4-yl)piperazin-1-yl) prop-2-en-1-one] | ++ (++ indicates binding activity from 50 to 90%) | 
C=CC(=O)N1CCN(c2nc(NC3CCCN(C(C)C)C3)nc3c(F)c(-c4c(O)cccc4F)c(Cl)cc23)CC1 (stereo not drawn) [Example I-121, 1-(4-(6-chloro-8-fluoro-7-(2-fluoro-6-hydroxyphenyl)-2-(1-isopropyl-piperidin-3-ylamino)quinazolin-4-yl)piperazin-1-yl) prop-2-en-1-one] | +++ (+++ indicates binding activity greater than 90%) | 
C=CC(=O)N1CCN(c2nc(OCCc3ccccn3)nc3c(F)c(-c4c(O)cccc4F)c(Cl)cc23)CC1 [Example I-45, 1-(4-(6-chloro-8-fluoro-7-(2-fluoro-6-hydroxyphenyl)-2-(2-(pyridin-2-yl)ethoxy)quinazolin-4-yl)piperazin-1-yl)prop-2-en-1-one] | +++ (+++ indicates binding activity greater than 90%) | 
C=CC(=O)N1CCN(c2nc(COCc3ncccc3F)nc3c(F)c(-c4c(O)cccc4F)c(Cl)cc23)CC1 [Example I-210, 1-(4-(6-chloro-8-fluoro-7-(2-fluoro-6-hydroxyphenyl)-2-(((3-fluoro-pyridin-2-yl)methoxy)methyl)quinazolin-4-yl)piperazin-1-yl) prop-2-en-1-one] | +++ (+++ indicates binding activity greater than 90%) | 
C=CC(=O)N1CCN(c2nc(OCCN3CCC(F)(F)C3)nc3c(F)c(-c4c(C)ccc5[nH]ncc45)c(Cl)cc23)CC1 [Example I-146, 1-(4-(6-chloro-2-(2-(3,3-difluoro-pyrrolidin-1-yl)ethoxy)-8-fluoro-7-(5-methyl-1H-indazol-4-yl)quinazolin-4-yl)piperazin-1-yl) prop-2-en-1-one] | +++ (+++ indicates binding activity greater than 90%) | 
C=C(F)C(=O)N1CCN(c2nc(OCCN3CCOCC3)nc3c(F)c(-c4cc(O)cc5ccccc45)c(Cl)cc23)CC1 [Example I-50, 1-(4-(6-chloro-8-fluoro-7-(3-hydroxy-naphthalen-1-yl)-2-(2-morpholino-ethoxy)quinazolin-4-yl)piperazin-1-yl)-2-fluoroprop-2-en-1-one] | ++ (++ indicates binding activity from 50 to 90%) | 
C=CC(=O)N1CCN(c2nc(NC3CCOCC3)nc3c(F)c(-c4cc(O)cc5ccccc45)c(Cl)cc23)CC1 [Example I-69, 1-(4-(6-chloro-8-fluoro-7-(3-hydroxy-naphthalen-1-yl)-2-(tetrahydro-2H-pyran-4-ylamino)quinazolin-4-yl)piperazin-1-yl)prop-2-en-1-one] | +++ (+++ indicates binding activity greater than 90%) | 
C=CC(=O)N1CCN(c2nc(N)nc3c(F)c(-c4c(O)cccc4F)c(Cl)cc23)CC1 [Example I-175, 1-(4-(2-amino-6-chloro-8-fluoro-7-(2-fluoro-6-hydroxyphenyl)quinazolin-4-yl)piperazin-1-yl) prop-2-en-1-one] | ++ (++ indicates binding activity from 50 to 90%) | 
C=CC(=O)N1CCN(c2nc(OCCc3ncccn3)nc3c(F)c(-c4c(O)cccc4F)c(Cl)cc23)CC1 [Example I-140, 1-(4-(6-chloro-8-fluoro-7-(2-fluoro-6-hydroxyphenyl)-2-(2-(pyrimidin-2-yl)ethoxy)quinazolin-4-yl)piperazin-1-yl) prop-2-en-1-one] | +++ (+++ indicates binding activity greater than 90%) | 
C=CC(=O)N1CCN(c2nc(OC3CCN(CC(F)(F)F)C3)nc3c(F)c(-c4c(O)cccc4F)c(Cl)cc23)CC1 (stereo not drawn) [Example I-26, 1-(4-(6-chloro-8-fluoro-7-(2-fluoro-6-hydroxyphenyl)-2-(1-(2,2,2-trifluoroethyl)pyrrolidin-3-yloxy)quinazolin-4-yl)piperazin-1-yl)prop-2-en-1-one] | +++ (+++ indicates binding activity greater than 90%) | 
C=CC(=O)N1CCN(c2nc(OCC(F)(F)c3ccccn3)nc3c(F)c(-c4c(C)ccc5[nH]ncc45)c(Cl)cc23)CC1 [Example I-123, 1-(4-(6-chloro-2-(2,2-difluoro-2-(pyridin-2-yl)ethoxy)-8-fluoro-7-(5-methyl-1H-indazol-4-yl)quinazolin-4-yl)piperazin-1-yl) prop-2-en-1-one] | +++ (+++ indicates binding activity greater than 90%) | 
C=CC(=O)N1CCN(c2ncnc3c(F)c(-c4c(O)cccc4F)c(Cl)cc23)C2(CC2)C1 [III-31, 1-(4-(6-chloro-8-fluoro-7-(2-fluoro-6-hydroxy-phenyl)quinazolin-4-yl)-4,7-diazaspiro [2.5]octan-7-yl)prop-2-en-1-one] |  | + (+ indicates binding activity up to 50%)
C=CC(=O)Oc1cccc(F)c1-c1c(Cl)cc2c(N3CCN(C(=O)C=C)CC3)nc(OCC(=O)N(C)C)nc2c1F [Example I-9, 2-(4-(4-acryloyl-piperazin-1-yl)-6-chloro-2-(2-(dimethylamino)-2-oxoethoxy)-8-fluoroquinazolin-7-yl)-3-fluorophenyl acrylate] | ++ (++ indicates binding activity from 50 to 90%) | 
C=CC(=O)N1CCN(c2nc(NCCN3CC(F)(F)C3)nc3c(F)c(-c4c(C)ccc5[nH]ncc45)c(Cl)cc23)CC1 [Example I-141, 1-(4-(6-chloro-2-(2-(3,3-difluoro-azetidin-1-yl)ethylamino)-8-fluoro-7-(5-methyl-1H-indazol-4-yl)quinazolin-4-yl)piperazin-1-yl) prop-2-en-1-one] | +++ (+++ indicates binding activity greater than 90%) | 
C=CC(=O)N1CCN(c2nc(NC(=O)c3ccnc(C)c3)nc3c(F)c(-c4c(O)cccc4F)c(Cl)cc23)CC1 [Example I-181, N-(4-(4-acryloyl-piperazin-1-yl)-6-chloro-8-fluoro-7-(2-fluoro-6-hydroxyphenyl)quinazolin-2-yl)-2-methyliso-nicotinamide] | + (+ indicates binding activity up to 50%) | 
